# Source: patent US20120165310A1, “ETHER DERIVATIVES OF BICYCLIC HETEROARYLS” (NOVARTIS AG, priority 2009, published 2012)
# Tests used:
# [1] = molecular target: T1, IGF-1R (Homo sapiens, UniProt P08069); assay: Cellular IGF-1R assay: capture ELISA (MSD) of receptor phosphorylation in Hek293 cells; type: cell-based; details: Hek293-IGF1R cells, 1 h pre-incubation, 10 min IGF stimulation, pIGF1R capture ELISA
# T1 construct: expressed in transfected cells; host or cells: Hek293 (Hek293-IGF1R)
# Summary of the method: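 IC50 from 4-parameter fit of IGF1R phosphorylation, normalised to IGF-stimulated and unstimulated controls, measured by MSD capture ELISA on lysates. Hek293-IGF1R cells in starvation medium got compound 1 h (top 10 μM, 3-fold steps, 0.1% DMSO) before a 10 min pulse of 1.0 ng/μL IGF.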
# [2] = In vitro metabolic identification study with rat liver microsomes; type: in vitro ADME; details: for formation of the phenolic metabolite X / metabolic stability relative to ex.102 of WO02/092559: rat and human liver microsomes; for Relative peak area after incubation, Parent / Relative peak area after incubation, Phenol metabolite X: rat liver microsomes, 1 hour incubation, parent 5 μM
# Protocol: (§1) In vitro metabolic identification studies with, Example 2 and Example 3 with human and rat liver microsomes are summarized in the table below in which the compounds were incubated for 1 hour with rat or human liver microsome preparations.
# (§2) The metabolism of unlabelled compound was examined following in vitro incubations with liver microsomes from rat and human. The samples were analyzed by capillary-HPLC/MS^(n) and screened for potential metabolites of the compound.
# [3] = In vitro metabolic identification study with human liver microsomes; type: in vitro ADME; details: 1 hour incubation, parent 5 μM
# Protocol: as §1, §2
# [4] = molecular target: InsR (Homo sapiens, UniProt P06213); assay: Kinase activity test, parent compound vs phenol metabolite X; type: biochemical
# Sequence of InsR (P06213 28-1382, species assumed): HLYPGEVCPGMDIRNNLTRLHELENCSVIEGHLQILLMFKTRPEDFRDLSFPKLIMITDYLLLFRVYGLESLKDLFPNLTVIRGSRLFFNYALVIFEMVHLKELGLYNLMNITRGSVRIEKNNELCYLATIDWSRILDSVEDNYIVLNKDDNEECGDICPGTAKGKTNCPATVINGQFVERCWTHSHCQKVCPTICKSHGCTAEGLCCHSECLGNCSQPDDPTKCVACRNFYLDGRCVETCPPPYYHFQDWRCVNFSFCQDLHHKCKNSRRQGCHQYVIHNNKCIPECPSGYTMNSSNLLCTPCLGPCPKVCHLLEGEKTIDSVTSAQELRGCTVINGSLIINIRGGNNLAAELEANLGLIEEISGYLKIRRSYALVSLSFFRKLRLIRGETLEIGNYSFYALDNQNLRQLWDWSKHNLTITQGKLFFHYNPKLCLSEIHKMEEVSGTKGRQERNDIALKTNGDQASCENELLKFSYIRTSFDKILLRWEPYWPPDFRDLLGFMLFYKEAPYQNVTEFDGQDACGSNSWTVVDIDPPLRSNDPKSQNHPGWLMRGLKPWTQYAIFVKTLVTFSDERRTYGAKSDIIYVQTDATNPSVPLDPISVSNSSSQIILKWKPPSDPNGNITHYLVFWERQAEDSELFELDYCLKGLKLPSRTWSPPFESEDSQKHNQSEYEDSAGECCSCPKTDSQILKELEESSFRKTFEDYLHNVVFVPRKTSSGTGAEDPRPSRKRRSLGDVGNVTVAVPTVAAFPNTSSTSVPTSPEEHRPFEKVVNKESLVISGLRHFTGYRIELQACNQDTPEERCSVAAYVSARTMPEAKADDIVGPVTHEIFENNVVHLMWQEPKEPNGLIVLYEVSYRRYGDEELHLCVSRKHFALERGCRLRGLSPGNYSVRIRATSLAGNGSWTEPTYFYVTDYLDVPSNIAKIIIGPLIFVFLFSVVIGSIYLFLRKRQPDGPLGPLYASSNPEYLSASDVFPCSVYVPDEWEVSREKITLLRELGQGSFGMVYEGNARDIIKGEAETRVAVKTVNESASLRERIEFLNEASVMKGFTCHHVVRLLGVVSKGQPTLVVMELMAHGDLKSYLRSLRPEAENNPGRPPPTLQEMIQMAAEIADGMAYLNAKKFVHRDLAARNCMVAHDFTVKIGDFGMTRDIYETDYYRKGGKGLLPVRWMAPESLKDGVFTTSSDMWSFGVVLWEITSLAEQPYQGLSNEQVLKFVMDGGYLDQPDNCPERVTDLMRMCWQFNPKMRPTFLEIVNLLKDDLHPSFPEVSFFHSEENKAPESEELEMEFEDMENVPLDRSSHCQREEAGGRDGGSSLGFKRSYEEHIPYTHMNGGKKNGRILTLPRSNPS
# [5] = molecular target: C-Abl (Homo sapiens, UniProt P00519); assay: as above; type: biochemical
# Description: (§3) In this tests, the parent compound, ex.102 of […] is compared with the corresponding phenol metabolite.
# [6] = molecular target: T2, EphB4 (Homo sapiens, UniProt P54760); assay: as above; type: biochemical
# T2 sequence (P54760 16-987): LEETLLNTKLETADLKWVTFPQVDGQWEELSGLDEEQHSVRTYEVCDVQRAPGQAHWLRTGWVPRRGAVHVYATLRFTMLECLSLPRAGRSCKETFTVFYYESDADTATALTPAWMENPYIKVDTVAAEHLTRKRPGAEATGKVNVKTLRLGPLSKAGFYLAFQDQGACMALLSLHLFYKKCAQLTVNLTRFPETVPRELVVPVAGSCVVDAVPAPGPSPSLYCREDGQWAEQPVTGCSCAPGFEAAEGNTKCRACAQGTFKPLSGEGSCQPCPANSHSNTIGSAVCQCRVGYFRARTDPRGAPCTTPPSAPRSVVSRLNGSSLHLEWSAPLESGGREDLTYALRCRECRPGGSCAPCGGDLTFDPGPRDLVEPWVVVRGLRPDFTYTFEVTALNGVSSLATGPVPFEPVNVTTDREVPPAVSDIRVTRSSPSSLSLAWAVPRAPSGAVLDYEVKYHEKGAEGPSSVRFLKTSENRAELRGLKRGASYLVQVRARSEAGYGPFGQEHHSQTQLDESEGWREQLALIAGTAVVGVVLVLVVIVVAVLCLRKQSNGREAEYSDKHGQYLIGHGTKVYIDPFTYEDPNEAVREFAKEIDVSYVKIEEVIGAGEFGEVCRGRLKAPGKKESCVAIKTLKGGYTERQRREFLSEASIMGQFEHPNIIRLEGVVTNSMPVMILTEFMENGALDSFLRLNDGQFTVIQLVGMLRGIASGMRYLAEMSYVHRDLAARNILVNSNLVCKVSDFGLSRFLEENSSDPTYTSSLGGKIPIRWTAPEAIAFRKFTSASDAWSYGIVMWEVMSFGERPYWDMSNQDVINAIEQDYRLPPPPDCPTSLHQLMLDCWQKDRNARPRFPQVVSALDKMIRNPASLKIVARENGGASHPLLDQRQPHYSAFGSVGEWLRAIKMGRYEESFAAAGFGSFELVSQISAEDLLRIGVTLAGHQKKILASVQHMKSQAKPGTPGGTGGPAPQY
# Description: as §3
# [7] = molecular target: RET (Homo sapiens, UniProt P07949); assay: as above; type: biochemical
# Sequence of RET (P07949 29-1114, species assumed): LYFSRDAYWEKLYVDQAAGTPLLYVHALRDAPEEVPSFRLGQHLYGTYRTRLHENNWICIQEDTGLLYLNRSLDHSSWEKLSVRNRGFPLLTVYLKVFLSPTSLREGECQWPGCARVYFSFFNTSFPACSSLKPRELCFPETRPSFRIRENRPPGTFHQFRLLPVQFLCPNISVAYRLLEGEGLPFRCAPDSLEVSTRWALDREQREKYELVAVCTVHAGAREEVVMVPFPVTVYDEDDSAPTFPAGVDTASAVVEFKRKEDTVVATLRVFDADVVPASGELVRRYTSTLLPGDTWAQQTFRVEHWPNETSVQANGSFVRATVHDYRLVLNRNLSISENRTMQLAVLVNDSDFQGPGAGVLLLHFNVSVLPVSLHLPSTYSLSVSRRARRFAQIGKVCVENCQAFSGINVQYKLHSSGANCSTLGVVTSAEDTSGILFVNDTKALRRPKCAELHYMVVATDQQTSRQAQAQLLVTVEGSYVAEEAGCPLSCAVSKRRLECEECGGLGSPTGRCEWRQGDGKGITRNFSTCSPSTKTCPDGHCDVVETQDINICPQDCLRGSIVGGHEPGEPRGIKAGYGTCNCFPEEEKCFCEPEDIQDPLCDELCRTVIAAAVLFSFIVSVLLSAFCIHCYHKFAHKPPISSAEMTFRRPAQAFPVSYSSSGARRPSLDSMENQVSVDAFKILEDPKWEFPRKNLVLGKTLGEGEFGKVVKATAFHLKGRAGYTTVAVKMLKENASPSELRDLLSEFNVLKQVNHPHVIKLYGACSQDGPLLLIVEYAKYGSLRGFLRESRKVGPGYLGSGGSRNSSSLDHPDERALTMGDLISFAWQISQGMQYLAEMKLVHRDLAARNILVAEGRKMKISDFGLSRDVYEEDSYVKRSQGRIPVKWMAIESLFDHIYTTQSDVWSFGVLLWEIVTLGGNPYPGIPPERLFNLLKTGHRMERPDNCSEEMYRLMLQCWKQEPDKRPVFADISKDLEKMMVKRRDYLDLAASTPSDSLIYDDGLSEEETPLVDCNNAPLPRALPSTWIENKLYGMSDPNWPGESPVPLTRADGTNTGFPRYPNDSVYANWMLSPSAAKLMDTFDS
# Description: as §3
# [8] = molecular target: c-src (Homo sapiens, UniProt P12931); assay: as above; type: biochemical
# Sequence of c-src (P12931 whole entry, species assumed): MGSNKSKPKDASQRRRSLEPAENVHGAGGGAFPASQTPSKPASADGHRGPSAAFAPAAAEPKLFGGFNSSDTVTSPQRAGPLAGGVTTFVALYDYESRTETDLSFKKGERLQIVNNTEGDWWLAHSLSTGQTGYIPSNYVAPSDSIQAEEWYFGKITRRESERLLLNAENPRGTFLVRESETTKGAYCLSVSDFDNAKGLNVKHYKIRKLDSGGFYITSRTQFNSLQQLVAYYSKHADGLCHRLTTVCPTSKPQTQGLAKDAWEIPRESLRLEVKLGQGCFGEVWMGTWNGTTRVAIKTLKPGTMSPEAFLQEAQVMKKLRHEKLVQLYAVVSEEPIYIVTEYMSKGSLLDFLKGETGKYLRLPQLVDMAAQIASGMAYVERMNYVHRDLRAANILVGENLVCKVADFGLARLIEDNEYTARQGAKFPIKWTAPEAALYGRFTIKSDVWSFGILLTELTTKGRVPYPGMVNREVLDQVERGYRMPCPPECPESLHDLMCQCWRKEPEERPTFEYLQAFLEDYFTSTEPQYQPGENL
# Description: as §3
# T1 sequence (P08069 31-1367): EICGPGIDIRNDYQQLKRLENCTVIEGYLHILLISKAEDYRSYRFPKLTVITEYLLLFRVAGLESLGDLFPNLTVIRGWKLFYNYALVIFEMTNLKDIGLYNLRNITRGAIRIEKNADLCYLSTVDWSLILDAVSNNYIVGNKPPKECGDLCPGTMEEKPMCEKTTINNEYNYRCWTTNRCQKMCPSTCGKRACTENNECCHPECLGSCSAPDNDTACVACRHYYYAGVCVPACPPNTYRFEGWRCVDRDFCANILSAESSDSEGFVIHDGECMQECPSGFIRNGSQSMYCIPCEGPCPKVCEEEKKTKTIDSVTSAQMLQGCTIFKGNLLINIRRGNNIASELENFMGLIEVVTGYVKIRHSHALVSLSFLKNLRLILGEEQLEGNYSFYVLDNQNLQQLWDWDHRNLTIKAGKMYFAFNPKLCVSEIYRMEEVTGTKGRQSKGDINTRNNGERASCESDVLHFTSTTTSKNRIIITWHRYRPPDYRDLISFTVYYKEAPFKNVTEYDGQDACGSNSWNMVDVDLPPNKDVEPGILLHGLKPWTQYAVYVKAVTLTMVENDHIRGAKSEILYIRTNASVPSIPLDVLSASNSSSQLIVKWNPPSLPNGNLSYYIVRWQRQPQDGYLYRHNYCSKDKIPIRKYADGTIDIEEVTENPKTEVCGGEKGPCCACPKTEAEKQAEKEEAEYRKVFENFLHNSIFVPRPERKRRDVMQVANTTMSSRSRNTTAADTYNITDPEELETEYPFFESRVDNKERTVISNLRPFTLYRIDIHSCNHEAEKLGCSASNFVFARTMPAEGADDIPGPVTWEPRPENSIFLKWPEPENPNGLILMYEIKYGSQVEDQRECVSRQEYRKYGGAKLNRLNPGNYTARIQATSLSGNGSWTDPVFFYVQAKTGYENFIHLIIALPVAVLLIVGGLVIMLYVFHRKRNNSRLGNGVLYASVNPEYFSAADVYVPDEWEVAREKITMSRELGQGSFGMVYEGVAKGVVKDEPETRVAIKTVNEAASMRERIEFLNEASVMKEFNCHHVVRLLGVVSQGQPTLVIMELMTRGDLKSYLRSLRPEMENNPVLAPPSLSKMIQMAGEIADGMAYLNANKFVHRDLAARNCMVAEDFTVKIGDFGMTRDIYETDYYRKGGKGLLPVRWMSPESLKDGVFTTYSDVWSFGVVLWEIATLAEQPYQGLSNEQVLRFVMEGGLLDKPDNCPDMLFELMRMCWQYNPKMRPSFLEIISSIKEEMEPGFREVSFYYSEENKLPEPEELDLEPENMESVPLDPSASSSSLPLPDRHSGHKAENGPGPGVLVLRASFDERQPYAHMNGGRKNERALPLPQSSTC
SMILES,IC50 [1] [µM],formation of the phenolic metabolite X [2],metabolic stability relative to ex.102 of WO02/092559 [2],"Relative peak area after incubation, Parent [2] [%]","Relative peak area after incubation, Phenol metabolite X [2]","Relative peak area after incubation, Parent [3] [%]","Relative peak area after incubation, Phenol metabolite X [3]",IC50 [4] [nM],IC50 [5] [nM],IC50 [6] [nM],IC50 [7] [nM],IC50 [8] [nM]
"Nc1ncnc2c1c(-c1cccc(OC[C@H]3CCCCO3)c1)cn2[C@H]1C[C@@H](CN2CCC2)C1 (single isomer, unassigned) [Example 2]",0.051 to 0.099,no evidence of formation,Greater metabolic stability,69.3,not detected,90.3,not detected,–,–,–,–,–
"Nc1ncnc2c1c(-c1cccc(OC[C@@H]3CCCCO3)c1)cn2[C@H]1C[C@@H](CN2CCC2)C1 (single isomer, unassigned) [Example 3]",0.105 to 0.141,no evidence of formation,Greater metabolic stability,75.8,not detected,81.7,not detected,–,–,–,–,–
"Nc1ncnc2c1c(-c1cccc(O)c1)cn2[C@H]1C[C@@H](CN2CCC2)C1 [Phenol metabolite X, cis-3-[4-amino-7-(3-azetidin-1-ylmethyl-cyclobutyl)-7H-pyrrolo[2,3-d]pyrimidin-5-yl]-phenol]",–,–,–,–,–,–,–,3800,47,9,8,4
